Consider one compound from ChEMBL document CHEMBL3508693 (2016).

Data set [1] can be described thus: % aliskiren hemifumarate (0-168h) recovered as M2 from M3 in urine following single oral dose of [14C] aliskiren hemifumarate at 3 mg.Kg-1 level in marmoset. The format is ADME, organism-based, Callithrix jacchus. As to conditions: in vivo.
Data set [2] can be described thus: % aliskiren recovered as M2 from M3 of receiver rat following duodenal infusion of radioactivity through bile from donor rat treated with single intravenous administration of 10 mg.Kg-1 [14C] aliskiren hemifumarate. The format is ADME, organism-based, HAN:WIST(SPF). The conditions noted are these: in vivo.
Data set [3] in a line: % aliskiren hemifumarate (0-72h) recovered as M2 from M3 in faeces following single intravenous dose of [14C] aliskiren hemifumarate at 1 mg.Kg-1 level in marmoset. The format is ADME, organism-based, Callithrix jacchus, Feces. The conditions noted are these: in vivo.
The nature of data set [4]: % of radioactivity recovered as M2 from M3 in plasma following oral administration of [14C] aliskiren hemifumarate at 100 mg.Kg-1 level in rat. The class given is ADME, organism-based, Albino HAN:WIST. The conditions noted are these: in vivo.
Data set [5] in a line: % aliskiren hemifumarate (0-168h) recovered as M2 from M3 in urine following single intravenous dose of [14C] aliskiren hemifumarate at 1 mg.Kg-1 level in marmoset. The format is ADME, organism-based, Callithrix jacchus. The conditions noted are these: in vivo.
Data set [6] is described as follows: % aliskiren recovered as metabolite M2 in faeces following 10 day repeated oral administration of [14C] aliskiren hemifumarate at 100 mg.Kg-1 level studied in rat. The class given is ADME, organism-based, Albino HAN:WIST, Feces. The conditions noted are these: in vivo, 240 h.
Data set [7] can be described thus: % aliskiren recovered as M2 from M3 in hydrolysed following single intravenous administration of 10 mg.Kg-1 [14C] aliskiren hemifumarate in male rat. The format is ADME, organism-based, HAN:WIST(SPF), Bile. The conditions noted are these: in vivo.
Data set [8] is described as follows: % aliskiren hemifumarate (0-72h) recovered as M2 from M3 in faeces following single oral dose of [14C] aliskiren hemifumarate at 3 mg.Kg-1 level in marmoset. The class given is ADME, organism-based, Callithrix jacchus, Feces. As to conditions: in vivo.
The nature of data set [9]: % of radioactivity recovered as M2 from M3 in faeces following oral administration of [14C] aliskiren hemifumarate at 100 mg.Kg-1 level in rat. The format is ADME, organism-based, Albino HAN:WIST, Feces. The conditions noted are these: in vivo.
The nature of data set [10]: % aliskiren hemifumarate recovered as M2 from M3 in urine and faeces following single oral dose of 300 mg [14C]SPP100 studied in healthy men. The format is ADME, organism-based, Urine/Feces. The conditions noted are these: human, in vivo, at 300 mg.
Data set [11] can be described thus: % of radioactivity recovered as M2 from M3 in urine following oral administration of [14C] aliskiren hemifumarate at 100 mg.Kg-1 level in rat. The format is ADME, organism-based, Albino HAN:WIST. As to conditions: in vivo.
Data set [12] is described as follows: % aliskiren recovered as metabolite M2 in urine following 10 day repeated oral administration of [14C] aliskiren hemifumarate at 100 mg.Kg-1 level studied in rat. The format is ADME, organism-based, Albino HAN:WIST. As to conditions: in vivo, 240 h.
Data set [13] can be described thus: % aliskiren recovered as M2 from M3 in urine following single intravenous administration of 10 mg.Kg-1 [14C] aliskiren hemifumarate in male rat. As to conditions: in vivo. The class given is ADME, organism-based, HAN:WIST(SPF).
Data set [14] can be described thus: % aliskiren hemifumarate recovered as M2 from M3 in urine following single oral dose of 300 mg [14C]SPP100 studied in healthy men. The format is ADME, organism-based. The conditions noted are these: human, in vivo, at 300 mg.
A short description of data set [15]: % of radioactivity recovered as M2 from M3 in plasma following intravenous administration of [14C] aliskiren hemifumarate at 10 mg.Kg-1 level in rat. The format is ADME, organism-based, Albino HAN:WIST. As to conditions: in vivo.
A short description of data set [16]: % aliskiren recovered as M2 from M3 in bile following single intravenous administration of 10 mg.Kg-1 [14C] aliskiren hemifumarate in male rat. The format is ADME, organism-based, HAN:WIST(SPF). As to conditions: in vivo.
Data set [17] is described as follows: % of radioactivity recovered as M2 from M3 in urine following intravenous administration of [14C] aliskiren hemifumarate at 10 mg.Kg-1 level in rat. The class given is ADME, organism-based, Albino HAN:WIST. As to conditions: in vivo.
A short description of data set [18]: % aliskiren recovered as metabolite M2 in plasma following 10 day repeated oral administration of [14C] aliskiren hemifumarate at 100 mg.Kg-1 level studied in rat. The class given is ADME, organism-based, Albino HAN:WIST. The conditions noted are these: in vivo, 240 h.
Data set [19] is described as follows: % aliskiren hemifumarate recovered as M2 from M3 in faeces following single oral dose of 300 mg [14C]SPP100 studied in healthy men. The format is ADME, organism-based, Feces. As to conditions: human, in vivo, at 300 mg.
Data set [20] can be described thus: % of radioactivity recovered as M2 from M3 in faeces following intravenous administration of [14C] aliskiren hemifumarate at 10 mg.Kg-1 level in rat. The class given is ADME, organism-based, Albino HAN:WIST, Feces. As to conditions: in vivo.

The structures appear in SMILES notation.

Regarding `COc1ccc(C[C@@H](C[C@H](N)[C@@H](O)C[C@H](C(=O)NCC(C)(C)C(N)=O)C(C)C)C(C)C)cc1OCCC(=O)O`, the Compound recovery was 0.1% in data set [1]; 15.4% in [2]; 6% in data set [3]; “<= 2%” in [4]; 0.1% in data set [5]; “OUTCOME = Observed, VALUE = Minor amounts” in data set [6]. In addition, the Compound recovery in [7] is given as 10.2%; in [8], 2%; in data set [9] it was “<= 2%”; in [10] it was 0.6%; in data set [11], “<= 2%”; in [12], “OUTCOME = Observed, VALUE = Minor amounts”. The Compound recovery in [13] is reported as 2.9%; in data set [14], less than 0.1%; in data set [15] it was “<= 2%”; in data set [16], 7.4%; in [17], “<= 2%”; in [18] it was “OUTCOME = Observed, VALUE = Minor amounts”. Further, the values for the Compound recovery in data set [19] and in data set [20] were 0.5% and greater than 2%, respectively.
